Experimental data as given in patent US10112941B2, “Tricyclic compounds as anticancer agents” (BRISTOL-MYERS SQUIBB COMPANY, priority 2013, dated 2018).
pIC50: −log10 of the molar value.

Experiments:
BRD4 = BRD4 (Homo sapiens, UniProt O60885); experiment: Time Resolved Fluorescence Resonance Energy Transfer (TR-FRET) binding assay, BRD4; conditions: one of the FRET assays described; read-out: FRET BRD4 IC50
[1] = tested on: H187 Human Small Cell Carcinoma; experiment: Human tumor xenograft model in mice, H187; assay type: in vivo; conditions: QD × 7
Excerpt: (§1) All rodents were obtained from Jackson Laboratory. (Bar Harbor, Me.), and maintained in an ammonia-free environment in a defined and pathogen-free colony. All mice were quarantined approximately 1 week prior to their use for tumor propagation and drug efficacy testing. Mice were fed food and water ad libitum. The animal care program of Bristol-Myers Squibb Pharmaceutical Research Institute is fully accredited by the American Association for Accreditation of Laboratory Animal Care (AAALAC). All experiments were performed in accordance with Bristol-Myers Squibb (BMS) animal test methods and guidelines.
(§2) Tumor xenografts were grown and maintained subcutaneously (SC) in NSG (NOD scid IL2 receptor gamma chain knockout) mice (Jackson Lab). Tumors were propagated as subcutaneous transplants using tumor fragments obtained from donor mice.
(§3) The required numbers of animals needed to detect a meaningful response were pooled at the start of the experiment and each was given bilateral subcutaneous implants of two tumor fragments (˜20 mg) with a 13-gauge trocar. Tumors were allowed to grow to the pre-determined size window (tumors outside the range were excluded) and animals were evenly distributed to various treatment and control groups. There were typically 6-8 mice per treatment and control groups, consisting of 10-12 tumors. Treatment of each animal was based on individual body weight. Treated animals were checked daily for treatment related toxicity/mortality. Each group of animals was weighed before the initiation of treatment (Wt1) and then again following the last treatment dose (Wt2). The difference in body weight (Wt2−Wt1) provides a measure of treatment-related toxicity.
(§4) Tumor response was determined by measurement of tumors with a caliper twice a week, until the tumors reached a predetermined “target” size of 0.5 gm or 1 gm depending on the tumor type. Tumor weights (mg) were estimated from the formula: Tumor weight=(length×width^2)÷2
(§5) Tumor response criteria are expressed in terms of tumor growth inhibition (% TGI). Tumor growth delay is defined as the difference in time (days) required for the treated tumors (T) to reach a predetermined target size compared to those of the control group (C). For this purpose, the tumor weight of a group is expressed as medium tumor weight (MTW).
(§6) [formula] where, • Ct=Median control tumor size at end of treatment • C0=Median control tumor size at treatment initiation • Tt=Median tumor size of treated group at end of treatment • T0=Median tumor size of treated group at treatment initiation
(§7) Tumor response was also expressed in terms of tumor growth delay and expressed as log cell kill (LCK value), defined as the difference in time (days) required for the treated tumors (T) to reach a predetermined target size compared to those of the control group (C).
(§8) Whenever possible, antitumor activity was determined at a range of dose levels up to the maximum tolerated dose (MTD) which is defined as the dose level immediately […] which excessive toxicity (i.e. more than one death) occurred. When death occurred, the day of death was recorded. Treated mice dying prior to having their tumors reach target size were considered to have died from drug toxicity. No control mice died bearing tumors less than target size. Treatment groups with more than one death caused by drug toxicity were considered to have had excessively toxic treatments and their data were not included in the evaluation of a compound's antitumor efficacy.
(§9) For administration of BET inhibitors to rodents, compounds were dissolved in […]/10% TPGS/10% Ethanol. BET inhibitors were typically administered orally on a schedule of QD×7 or QD×10 (5 day-on-2 day-off), although other schedules had also been evaluated and shown to be efficacious

[2] = tested on: JJN3R multiple myeloma cell line; experiment: Human tumor xenograft model in mice, JJN3R; assay type: in vivo; conditions: QD × 7
Excerpt: as §1, §2, §3, §4, §5, §6, §7, §8, §9

Question: With Cc1nnn(C)c1-c1cnc2c3ccc(C(C)(C)O)c(F)c3n(C(c3ccccc3)C3CCOCC3)c2c1 (single isomer, unassigned) [Example 70, 2-[3-(dimethyl-1H-1,2,3-triazol-5-yl)-6-fluoro-5-[oxan-4-yl(phenyl)methyl]-5H-pyrido[3,2-b]indol-7-yl]propan-2-ol] as the molecule, how does the pIC50 (BRD4) read?
Answer: > 8.30

Question: What about the “% TGI” value ([1]; H187, 1 mg/kg) of the same molecule?
Answer: 82.0%

Question: What about the LCK ([1]; H187, 1 mg/kg) of the same molecule?
Answer: 0.7

Question: What about the “% TGI” value ([1]; H187, 3 mg/kg) of the same molecule?
Answer: 90.0%

Question: What about the LCK ([1]; H187, 3 mg/kg) of the same molecule?
Answer: 1.0

Question: And the “% TGI” value ([1]; H187, 10 mg/kg)?
Answer: 96.0%

Question: What about the LCK ([1]; H187, 10 mg/kg) of the same molecule?
Answer: 1.6

Question: With Cc1nnn(C)c1-c1cnc2c3ccc(C(C)(O)C4CC4)c(F)c3n([C@H](c3ccccc3F)C3CCOCC3)c2c1 (single isomer, unassigned) [Example 436] as the molecule, how does the pIC50 (BRD4) read?
Answer: > 8.30

Question: And the LCK ([2]; 1 mg/kg)?
Answer: 0.6

Question: What about the LCK ([2]; 4 mg/kg) of the same molecule?
Answer: 0.9

Question: With [2H]C([2H])([2H])c1nnn(C)c1-c1cnc2c3ccc(C(C)(C)O)cc3n(C(c3ccccc3)C3CCC(F)(F)CC3)c2c1 (stereo not shown) [Example 203, 2-{5-[(4,4-Difluorocyclohexyl)(phenyl)methyl]-3-[4-(^2H3)methyl-1-methyl-1H-1,2,3-triazol-5-yl]-5H-pyrido[3,2-b]indol-7-yl}propan-2-ol] as the molecule, how does the pIC50 (BRD4) read?
Answer: > 8.30

Question: What about the “% TGI” value ([2]; 1 mg/kg) of the same molecule?
Answer: 93%

Question: What about the LCK ([2]; 1 mg/kg) of the same molecule?
Answer: 0.7

Question: And the “% TGI” value ([2]; 4 mg/kg)?
Answer: 105%

Question: What about the LCK ([2]; 4 mg/kg) of the same molecule?
Answer: >1.4

Question: Which results are given for [2H]C([2H])([2H])c1nnn(C)c1-c1cnc2c3ccc(S(C)(=O)=O)cc3n([C@H](c3ccccc3)C3CCOCC3)c2c1 [Example 263, 5-{7-Methanesulfonyl-5-[(S)-oxan-4-yl(phenyl)methyl]-5H-pyrido[3,2-b]indol-3-yl}-4-(^2H3)methyl-1-methyl-1H-1,2,3-triazole]?
Answer: pIC50 (BRD4): > 8.30; LCK ([2]; 1 mg/kg): 0.2; LCK ([2]; 4 mg/kg): 0.3

Question: How did the pIC50 (BRD4) turn out when [2H]C([2H])([2H])c1nnn(C)c1-c1cnc2c3cc(F)c(C(C)(C)O)cc3n([C@H](c3ccccc3F)C3CCOCC3)c2c1 [Example 276, 2-{8-Fluoro-5-[(S)-(2-fluorophenyl)(oxan-4-yl)methyl]-3-[4-(^2H3)methyl-1-methyl-1H-1,2,3-triazol-5-yl]-5H-pyrido[3,2-b]indol-7-yl}propan-2-ol] was run?
Answer: > 8.30

Question: What about the LCK ([2]; 1 mg/kg) of the same molecule?
Answer: 0.3

Question: And the LCK ([2]; 4 mg/kg)?
Answer: 1

Question: What does the source list for [2H]C([2H])([2H])c1nnn(C)c1-c1cnc2c3ccc(C(C)(C)O)c(F)c3n([C@H](c3ccccc3)C3CCOCC3)c2c1 [Example 278, 2-{6-Fluoro-3-[4-(^2H3)methyl-1-methyl-1H-1,2,3-triazol-5-yl]-5-[(S)-oxan-4-yl(phenyl)methyl]-5H-pyrido[3,2-b]indol-7-yl}propan-2-ol]?
Answer: pIC50 (BRD4): > 8.30; LCK ([2]; 1 mg/kg): 1; LCK ([2]; 4 mg/kg): >1.4

Question: How did the pIC50 (BRD4) turn out when [2H]C([2H])([2H])c1nnn(C)c1-c1cnc2c3cc(F)c(C(C)(C)O)cc3n([C@H](c3ccccc3)C3CCOCC3)c2c1 [Example 279, 2-{8-Fluoro-3-[4-(^2H3)methyl-1-methyl-1H-1,2,3-triazol-5-yl]-5-[(S)-oxan-4-yl(phenyl)methyl]-5H-pyrido[3,2-b]indol-7-yl}propan-2-ol] was run?
Answer: > 8.30

Question: What about the LCK ([2]; 1 mg/kg) of the same molecule?
Answer: 0.6

Question: And the LCK ([2]; 4 mg/kg)?
Answer: >1.4

Question: Which results are given for Cc1nnn(C)c1-c1cnc2c3ccc([C@](C)(O)C4CC4)c(F)c3n([C@H](c3ccccc3)C3CCOCC3)c2c1 [Example 432, (1R)-1-cyclopropyl-1-[3-(dimethyl-1H-1,2,3-triazol-5-yl)-6-fluoro-5-[(S)-oxan-4-yl(phenyl)methyl]-5H-pyrido[3,2-b]indol-7-yl]ethan-1-ol]?
Answer: pIC50 (BRD4): > 8.30; LCK ([2]; 1 mg/kg): 0.4; LCK ([2]; 4 mg/kg): 1.4

Question: Which “% TGI” value ([2]; 1 mg/kg) does the source give for [2H]C([2H])([2H])c1nnn(C)c1-c1cnc2c3ccc([C@@](C)(O)C4CC4)c(F)c3n([C@H](c3ccccc3)C3CCOCC3)c2c1 [Example 433, (1S)-1-cyclopropyl-1-{6-fluoro-3-[4-(^2H3)methyl-1-methyl-1H-1,2,3-triazol-5-yl]-5-[(S)-oxan-4-yl(phenyl)methyl]-5H-pyrido[3,2-b]indol-7-yl}ethan-1-ol] here?
Answer: 54%

Question: What about the LCK ([2]; 1 mg/kg) of the same molecule?
Answer: 0.5

Question: What does the source list for [2H]C([2H])([2H])c1nnn(C)c1-c1cnc2c3ccc([C@](C)(O)C4CC4)c(F)c3n([C@H](c3ccccc3)C3CCOCC3)c2c1 [Example 434, (1R)-1-cyclopropyl-1-{6-fluoro-3-[4-(^2H3)methyl-1-methyl-1H-1,2,3-triazol-5-yl]-5-[(S)-oxan-4-yl(phenyl)methyl]-5H-pyrido[3,2-b]indol-7-yl}ethan-1-ol]?
Answer: % TGI ([2]; 1 mg/kg): 82%; LCK ([2]; 1 mg/kg): 0.5
